The source of these data is patent US20040137426A1, “Gp41 peptides and methods based thereon for inhibiting HIV fusion to target cells” (priority 2002, published 2004).

One test deals with HIV-1. To be noted: qualitative comparison. As for the experimental part: Peptides were tested in vitro for inhibition of early steps in cell-free HIV-1 infection and direct cell-to-cell spread of virus using T-cell line-adapted and primary isolates and recombinant HIV-1 viruses pseudotyped for env using CCR5, CXCR4 or both coreceptors.
Selected de novo designed peptides according to the invention (S291, N36E, W37Q and W371) and the new analogues of T20, T21 and DP219 were evaluated for inhibition of both cell-free HIV-1 infection and of direct cell-to-cell spread using a range of T-cell line-adapted and primary isolates and recombinant HIV-1 pseudotyped for env derived from patient isolates of different clades.

For a further test, the system named is 89.6. Description: Primary isolate infectivity in peripheral blood lymphocytes, p24 ELISA: 89.6. Format: cell-based, HIV-1. To be noted: primary isolate 89.6. As for the experimental part: (§1) Infectivity studies were performed using the inhibition of HIV-1 infection of the gp41 derived peptides using receptor bearing cells for both HIV-1 T cell line adapted virus (HIV-1 IIIB) in MT2 cells and primary isolate virus (SF162, JRCSF and 89.6) in peripheral blood lymphocytes. Both involved the culture of the virus with the peptide or its scrambled form for 1 hr at 37° C., 5% CO2 and then subsequent addition of target cells for 7 days. Inhibition was assessed using an enzyme-linked immunosorbent assay (ELISA) of viral core protein p24 antigen.

The test system of the next test is JRCSF. Description: Primary isolate infectivity in peripheral blood lymphocytes, p24 ELISA: JRCSF. In kind it is cell-based, HIV-1. As for the experimental part:
as §1
(An ELISA detects its analyte on a solid surface through an enzyme-linked reagent.)

The test system of a further test is HIV-1 IIIB. Format: cell-based. To be noted: lab-adapted HIV-1 IIIB. As for the experimental part:
Both involved the culture of the virus with the peptide or its scrambled form for 1 hr at 37° C., 5% CO2 and then subsequent addition of target cells for 7 days. Inhibition was assessed using an enzyme-linked immunosorbent assay (ELISA) of viral core protein p24 antigen.

The test system of a further test is BR94. Description: Primary isolate infectivity in PBMCs: patient isolate BR94 (clade B). Format: cell-based, HIV-1.
The next test has as its system SF162. Description: Primary isolate infectivity in peripheral blood lymphocytes, p24 ELISA: SF162. Format: cell-based, HIV-1. As for the experimental part: as §1

Values after ≈ are worked out from the molar mass of the structure shown. Where only a bound is given, the exact number is not on record here.

For `CC[C@H](C)[C@H](NC(=O)[C@H](CC(C)C)NC(=O)[C@H](CO)NC(=O)[C@H](Cc1ccc(O)cc1)NC(=O)[C@@H](NC(=O)[C@H](CC(C)C)NC(=O)[C@H](CO)NC(=O)[C@@H](NC(=O)[C@H](Cc1ccc(O)cc1)NC(=O)[C@H](CC(N)=O)NC(=O)[C@H](CC(=O)O)NC(=O)[C@@H](NC(=O)[C@H](CCC(=O)O)NC(=O)[C@H](CCCNC(=N)N)NC(=O)[C@H](CCC(=O)O)NC(=O)[C@H](Cc1c[nH]c2ccccc12)NC(=O)[C@H](CCC(=O)O)NC(=O)[C@H](CCSC)NC(=O)[C@H](Cc1c[nH]c2ccccc12)NC(=O)[C@@H](NC(=O)[C@H](CCSC)NC(=O)[C@H](CC(N)=O)NC(=O)[C@H](CC(N)=O)NC(=O)[C@H](Cc1c[nH]c2ccccc12)NC(=O)[C@@H](NC(=O)[C@H](CCC(N)=O)NC(=O)[C@H](CCC(=O)O)NC(=O)[C@H](CC(C)C)NC(=O)[C@@H](N)CO)[C@@H](C)CC)[C@@H](C)O)[C@@H](C)CC)[C@@H](C)O)[C@@H](C)CC)C(=O)O` [Peptide S29I], the “activity compared with the new analogues of T-20, T-21 and DP219” value with HIV-1 is listed as “broadly similar levels of activity”. Also, the “Primary isolate (ID50) 89.6” value in the test with 89.6 amounted to 50 µg/mL. In addition, the “Primary isolate (ID50) JRCSF” value in the test with JRCSF was >50 µg/mL. Also, in the test with HIV-1 IIIB, the “ID50% HIV-1IIIB infectivity” value is 9.37 µg/mL (≈ 2.55 µM), the “ID90 HIV-1IIIB infectivity” value was found to be 25 µg/mL (≈ 6.8 µM) and the “MIC HIV-1IIIB infectivity” value turned out to be 6.3 µg/mL (≈ 1.71 µM). Moreover, in the test on BR94, the “Primary isolate (ID50) BR94” value was 0 µg/mL. Further, in the test with SF162, the “Primary isolate (ID50) SF162” value came to 0.06 µg/mL.
